Converted amounts (≈) assume the structure as drawn. Read-outs that look alike come from different tables or passages of the source.
Tests used:
Mucor spp. = experiment: Deferasirox susceptibility testing (MIC/MFC), Mucor clinical isolates; format: cell-based
Protocol: Minimum inhibitory concentration (MIC) and minimum fungicidal concentration (MFC) were determined for deferasirox by the method of Espinel-Ingroff using R. oryzae spores starved for iron (Espinel-Ingroff, (2001), supra). Cidality was defined as a <4-fold difference between MIC and MFC.
We next determined the deferasirox susceptibilities of multiple clinical isolates of Mucorales (Table 3). The MIC9OS of deferasirox against Mucor, non-oryzae Rhizopus spp., and R. oryzae were 3.12 to 6.25 μg/ml. MFCs were similar to MICs, and deferasirox was cidal for 28/29 (97%) of isolates. Of note, slight growth was seen within the first twelve hours even at extremely high concentrations of deferasirox. […] Furthermore, the MICs and MFCs of deferasirox against these isolates were well below clinically achievable peak (˜38 μg/ml) and trough serum levels (˜17 μg/ml) of the drug at steady state when administered at the FDA-approved starting dose (20 mg/kg/d).

R. oryzae 99-892 = experiment: Kidney histopathology of DKA mice infected with R. oryzae; format: in vivo; conditions: 10 mg/kg bid
Protocol: For in vivo infection, BALB/c male mice (>20 g) were rendered diabetic with a single i.p. injection of 210 mg/kg streptozotocin in 0.2 ml citrate buffer 10 days prior to fungal challenge. Glycosuria and ketonuria were confirmed in all mice 7 days after streptozotocin treatment. For neutropenic mouse model, mice were injected with a single i.p. dose of 200 mg/kg cyclolphosphamide (Bristol Myer Squibb) 2 days prior to infection with R. oryzae. […] Mice were infected through the tail vein with the appropriate inocula of R. oryzae. To confirm the inocula, dilutions were streaked on PDA plates containing 0.1% triton and colonies were counted following a 24 h incubation period at 37° C. The primary efficacy endpoint was time to death. As a secondary endpoint, brain fungal burden (the primary target organ) was determined by homogenization by rolling a pipette on organs placed in Whirl-Pak™ bags (Nasco®, Fort Atkinson, Wis.) containing 1 ml saline. The homogenate was serially diluted in 0.85% saline and then quantitatively cultured on PDA. Values were expressed as log10 cfu g−1 tissue. […]
To determine the impact of deferasirox on tissue fungal burden, diabetic ketoacidotic mice were infected via the tail-vein with 4.2×10^4 spores of R. oryzae 99-892. […] Kidneys and brains were removed on day four, homogenized, and quantitatively cultured.

[1] = Deferasirox toxicity studies in neutropenic mice; format: in vivo; conditions: uninfected neutropenic mice
Protocol: Toxicity of deferasirox in neutropenic mice was evaluated. Mice were rendered neutropenic as above and treated with deferasirox at 10 mg/kg twice every day or every other day for 7 days. Mice from three different groups (i.e. placebo, deferasirox daily treatment, and deferasirox every other day treatment) were sacrificed on day 3 or 8 and blood was collected and sent for Charles River Laboratories for evaluation. Additionally, bone marrow smears were prepared from femurs, and tissues were collected, preserved in zinc-buffered formalin, embedded in paraffin, sectioned at 5 μm, and stained with hematoxylin and eosin. The resulting slides were examined by a board-certified veterinary pathologist at Charles River Laboratories.
Because deferasirox dosing every other day was optimal in the neutropenic model, we sought to identify any potential toxicity caused by daily dosing of deferasirox in neutropenic mice. Mice were made neutropenic with cyclophosphamide as above, but were not infected. The mice were treated with deferasirox 10 mg/kg twice daily for seven days, 10 mg/kg twice every other day for 4 doses, or placebo. Terminal bleeds were performed on day 3 or day 8 to measure complete blood count, serum chemistries, and liver function tests. […]

[2] = steady state; FDA-approved starting dose 20 mg/kg/d; cited from earlier work
[3] = test system: rhinocerebral mucormycosis; experiment: Salvage therapy of a patient with rhinocerebral mucormycosis (case); format: in vivo, human; conditions: one patient
Protocol: A person with diabetic ketoacidosis presented to the emergency department of an outside hospital with polyuria, polydipsia, left retrobulbar pain, and a left cranial nerve (CN) VI palsy. […] The patient progressed to complete left opthalmoplegia in the first 24 hours. Rhinocerebral mucormycosis was suspected, and they were started on amphotericin B lipid complex (ABLC) at 5 mg/kg/day, along with empiric antibacterial agents, for treatment of sinusitis. On hospital day 2 they underwent endoscopic sphenooethmoid exploration. […] Bacterial culture grew only rare Enterobacter aerogenes.
Over the next twelve days, the patient developed blindness and worsening proptosis in the left eye. He was continued on ABLC and no further surgery was performed.
The patient was transferred to our institution for further management on hospital day 14. Immediately upon arrival, he underwent left orbital exenteration with enucleation and extensive sinus debridement and resection. Intraoperative findings included an ischemic globe with extensive surrounding necrosis of the extraocular muscles.
Antifungal therapy was continued. […] Given the location of the lesion at the superficial aspect of the pons, a dose of intracisternal amphotericin was administered, but the patient refused further doses. The patient remained clinically and neurologically unchanged. […]

In the case of `O=C(O)c1ccc(-n2nc(-c3ccccc3O)nc2-c2ccccc2O)cc1` [Deferasirox, 4-[3,5-Bis(2-hydroxyphenyl)-1H-1,2,4-triazol-1-yl]-benzoic acid], the “Fungicidal?” value (Mucor spp.; Mucor 97-1083, 24 h) is reported as “Y (Cidal = MFC/MIC ≦ 4)”, the “Fungicidal?” value (Mucor spp.; Mucor 97-1083, 48 h) is reported as “Y (Cidal = MFC/MIC ≦ 4)” and the “Fungicidal?” value (Mucor spp.; Mucor ramosissumus 97-1192, 24 h) is reported as “Y (Cidal = MFC/MIC ≦ 4)”. The MFC (Mucor spp.; Mucor ramosissumus 97-1192, 24 h, read-out: MFC) was 0.78 µg/mL (≈ 2.09 µM), the MIC (Mucor spp.; Mucor ramosissumus 97-1192, 24 h, read-out: MIC) was 0.78 µg/mL (≈ 2.09 µM) and the “Fungicidal?” value (Mucor spp.; Mucor ramosissumus 97-1192, 48 h) was “Y (Cidal = MFC/MIC ≦ 4)”. For the same compound, the MFC (Mucor spp.; Mucor ramosissumus 97-1192, 48 h, read-out: MFC) was 0.78 µg/mL (≈ 2.09 µM), the MIC (Mucor spp.; Mucor ramosissumus 97-1192, 48 h, read-out: MIC) was 0.78 µg/mL (≈ 2.09 µM) and the “Fungicidal?” value (Mucor spp.; Mucor sp. 99-932, 24 h) was “Y (Cidal = MFC/MIC ≦ 4)”. The “Fungicidal?” value (Mucor spp.; Mucor sp. 99-932, 48 h) was “Y (Cidal = MFC/MIC ≦ 4)”, the “Fungicidal?” value (Mucor spp.; Mucor spp. MIC90/MFC90, 24 h) was “Y (Cidal = MFC/MIC ≦ 4)” and the MFC90 (Mucor spp.; Mucor spp. MIC90/MFC90, 24 h) was 3.12 µg/mL (≈ 8.36 µM). For the same compound, the “Fungicidal?” value (Mucor spp.; Mucor spp. MIC90/MFC90, 48 h) was “Y (Cidal = MFC/MIC ≦ 4)”, the MFC90 (Mucor spp.; Mucor spp. MIC90/MFC90, 48 h) was 3.12 µg/mL (≈ 8.36 µM) and the MIC90 (Mucor spp.; Mucor, 24 h) was 3.12 µg/mL (≈ 8.36 µM). It also gave an MFC (Mucor spp.; Mucor, 24 h, Mucor 97-1083) of 3.12 µg/mL (≈ 8.36 µM), an MIC (Mucor spp.; Mucor, 24 h, Mucor 97-1083) of 3.12 µg/mL (≈ 8.36 µM) and an MFC (Mucor spp.; Mucor, 24 h, Mucor sp. 99-932) of 3.12 µg/mL (≈ 8.36 µM). It also gave an MIC (Mucor spp.; Mucor, 24 h, Mucor sp. 99-932) of 3.12 µg/mL (≈ 8.36 µM), an MIC90 (Mucor spp.; Mucor, 48 h) of 3.12 µg/mL (≈ 8.36 µM) and an MFC (Mucor spp.; Mucor, 48 h, Mucor 97-1083) of 3.12 µg/mL (≈ 8.36 µM). It also gave an MIC (Mucor spp.; Mucor, 48 h, Mucor 97-1083) of 3.12 µg/mL (≈ 8.36 µM), an MFC (Mucor spp.; Mucor, 48 h, Mucor sp. 99-932) of 3.12 µg/mL (≈ 8.36 µM) and an MIC (Mucor spp.; Mucor, 48 h, Mucor sp. 99-932) of 3.12 µg/mL (≈ 8.36 µM). For the same compound, the “hyphae in kidneys by histopathology” value (R. oryzae 99-892) was “no visible hyphae”, the “neutrophil influx in the kidneys” value (R. oryzae 99-892) was “prominent” and the “white cell, neutrophil, platelet counts, hemoglobin, serum chemistries, liver function tests versus placebo” value ([1]; 10 mg/kg twice daily 7 days or twice every other day 4 doses, day 3 or 8) was “No differences”. The “organ toxicity by histopathology” value ([1]; 10 mg/kg twice daily or twice every other day) was “no organ-specific toxicity attributable to deferasirox”, the “clinically achievable peak serum level” value [2] was about 38 µg/mL and the “clinically achievable trough serum level” value [2] was about 17 µg/mL. The “repeat MRI of the brain” value ([3]; 1000 mg po daily seven days, LAmB continued, one week after treatment) was “resolution of the edema in the left cerebellar peduncle” and the radiographic outcome ([3]; after 7 days of treatment) was “substantial radiographic improvement”.
